Source: patent publication US4535075A, “Dithiolane derivative, process for producing the same and use thereof” (Nihon Nohyaku Co., Ltd., priority 1982, dated 1985)

Columns and labels:
[1] = system: liver damage induced by carbon tetrachloride; assay: Protective (Controlling) effect on liver damage induced by carbon tetrachloride; assay type: in vivo, mice (dd strain); conditions: for p-GPT: CCl4 alone >2,100; for Liver Damage Index: average of 5 mice, CCl4 alone 5.0
Source text: Protective (Controlling) Effect on liver damage induced by carbon tetrachloride.
Carbon tetrachloride administration induces centrilobular necrosis of the liver associated with loss of diphosphopyridine nucleotide, hepatic glycogen, coenzyme A and increase in neutral fat. Release of several enzymes from the hepatocytes, and increases of enzyme activities in the plasma are recognized as the result of the damage of the liver.
A suitable means for evaluating the degree induced by carbon tetrachloride or the degree of protection afforded by drugs is to study the plasma glutamic-pyruvic transaminase (p-GPT) activity. […]
After 6 hours, carbon tetrachloride was administered orally 0.05 ml/kg.
Animals were killed 24 hours after carbon tetrachloride administration, and the liver was grossly observed.
The plasma was obtained by centrifugation. Activity of p-GPT were determined by the method of Reitman and Frankel and expressed in Karmen units.
Score for liver damage index was as follows:
1 Each figure indicated average of 5 mice.

[2] = system: liver damage induced by α-naphthyl isothiocyanate (ANIT); assay: Protective effect on liver damage induced by ANIT (Method 1); assay type: in vivo, mice; conditions: 2 x 250 mg/kg p.o., ANIT 35 mg/kg p.o., 24 h
Source text: Protective effect on liver damage induced by α-naphthyl isothiocyanate (referred to as "ANIT", hereinafter).
It is well known that experimental cholestasis is accomplished by administration with ANIT in mice and rats, and studied as a cholestasis model in human being.
ANIT and CCl4 induce necrosis in the liver. ANIT causes it as small focci in perilobular parenchyna and CCl4 causes centrilobular parenchymal coagulation necrosis.
From these information, the elevation of plasma GPT activity in these models are thought to have defferent characteristics.
Test compounds, dissolved or suspended in olive oil or diethyleneglycol, were orally administered 2 times at intervals of 3 hrs to mice at the dose of 250 mg/kg. At 3 hrs after the second administration with test compounds, ANIT was administered orally at 35 mg/kg.
Mice were sacrificed at 24 hrs after ANIT administration and blood samples were collected. The blood samples were centrifuged and plasma was obtained.
Plasma GPT activity and alkaline phosphatase activity were determined by Reitman & Frankel's method and Bessey-Lowry's method, respectively. The activity was expressed with Karmen Unit and Bessey-Lowry Unit, respectively.

[3] = 250 mg/kg p.o., CCl4 0.05 ml/kg after 6 h, 24 h
[4] = 250 mg/kg p.o., CCl4 0.05 ml/kg after 6 h, 24 h, 0 Normal, 2 Slightly recognized, 4 Clearly observable damage, 6 Heavy damage
[5] = Table 3-1, control 3.3, ANIT alone 5.3
[6] = Table 3-1, control 7.4, ANIT alone 324.0

Row | Structure (SMILES) | p-GPT [1, 3] [Karmen units] | Liver Damage Index [1, 4] | also measured
1 | CCCCOC(=O)C(C(=O)OCCCC)=C1SC(O)C(O)S1 (stereo not drawn) [Compound 4] | 18 | 0.0 | Alkaline phosphatase activity [2, 5]: 3.3 B-L.V.; p-GPT [2, 6]: 26.8 K.U.
2 | CCCCOC(=O)C(C(=O)OCC)=C1SC(O)C(O)S1 (stereo not drawn) [Compound 18] | 28 | 0.0 | Alkaline phosphatase activity [2, 5]: 4.8 B-L.V.; p-GPT [2, 6]: 180.8 K.U.
3 | CC(C)OC(=O)C(C(=O)OC(C)C)=C1SCC(O)S1 (stereo not drawn) [Compound A, reference compound] |  |  | Alkaline phosphatase activity ([2]; Table 3-2, ANIT alone 5.3): 8.5 B-L.V.; p-GPT ([2]; Table 3-2, ANIT alone >653.7): > 755.0 K.U.
4 | COCC(C)OC(=O)C(C(=O)OC(C)COC)=C1SC(O)C(O)S1 (stereo not drawn) [Compound 15, bis(3-methoxypropan-2-yl)4,5-dihydroxy-1,3-dithiolan-2-ylidenemalonate] | 39 | 0.0 | Alkaline phosphatase activity ([2]; Table 3-2, ANIT alone 5.3): 3.7 B-L.V.; p-GPT ([2]; Table 3-2, ANIT alone >653.7): 134.5 K.U.
5 | CC(C)(C)OC(=O)C(C(=O)OC(C)(C)C)=C1SC(O)C(O)S1 (stereo not drawn) [Compound 7] | 90 | 0.0 | Alkaline phosphatase activity ([2]; Table 3-2, ANIT alone 5.3): 3.5 B-L.V.; p-GPT ([2]; Table 3-2, ANIT alone >653.7): 422.8 K.U.
6 | O=C(OC1CCCCC1)C(C(=O)OC1CCCCC1)=C1SC(O)C(O)S1 (stereo not drawn) [Compound 10] | 72 | 0.0 | Alkaline phosphatase activity ([2]; Table 3-2, ANIT alone 5.3): 4.9 B-L.V.; p-GPT ([2]; Table 3-2, ANIT alone >653.7): 363.7 K.U.
7 | CCCOC(=O)C(C(=O)OCC)=C1SC(O)C(O)S1 (stereo not drawn) [Compound 17] | 40 | 0.6 | Alkaline phosphatase activity [2, 5]: 4.8 B-L.V.; p-GPT [2, 6]: 242.0 K.U.
8 | CCCOC(=O)C(C(=O)OC(C)C)=C1SC(O)C(O)S1 (stereo not drawn) [Compound 20] | 30 | 0.4 | Alkaline phosphatase activity [2, 5]: 4.0 B-L.V.; p-GPT [2, 6]: 163.4 K.U.
9 | CCOC(=O)C(C(=O)c1ccccc1)=C1SC(O)C(O)S1 (stereo not drawn) [Compound 56] |  |  | Liver Damage Index ([1]; administered at 100 mg/kg p.o., scale 0 Normal to 6 Heavy damage): 4.0; p-GPT ([1]; administered at 100 mg/kg p.o.): > 1418 Karmen units
10 | CCC(C)OC(=O)C(C(=O)OC(C)CC)=C1SC2OC(=O)OC2S1 (stereo not drawn) [Compound 78] | 96.0 | 0 | 
11 | CC(C)COC(=O)C(C(=O)OCC(C)C)=C1SC2OC(=O)OC2S1 (stereo not drawn) [Compound 77] | 21.2 | 0.2 | 
12 | CCCCCCOC(=O)C(C#N)=C1SC(O)C(O)S1 (stereo not drawn) [Compound 33] | 93 | 0.8 | 
13 | COC(=O)C(C#N)=C1SC(O)C(O)S1 (stereo not drawn) [Compound 24] | 152 | 1.0 | 
14 | C=CCOC(=O)C(C(=O)OCC=C)=C1SC2OC(=S)OC2S1 (stereo not drawn) [Compound 112, 7-bis(allyloxycarbonyl)methylene-3-thioxo-2,4-dioxa-6,8-dithiabicyclo[3,3,0]octane] | 20.2 | 0.6 | 
15 | CCCC(=O)C(C(=O)OCC)=C1SC2OC(=O)OC2S1 (stereo not drawn) [Compound 101] | 20.0 | 0.2 | 
16 | CCCCCOC(=O)C(C(=O)OCCCCC)=C1SC2OC(=O)OC2S1 (stereo not drawn) [Compound 80] | 71.1 | 0.4 | 
17 | CCOC(=O)C(C(=O)CC(C)C)=C1SC(O)C(O)S1 (stereo not drawn) [Compound 53] | 94 | 0.8 | 
18 | CC(C)COC(=O)C(C#N)=C1SC(O)C(O)S1 (stereo not drawn) [Compound 29] | 175 | 1.0 | 
19 | CC(C)CCOC(=O)C(C#N)=C1SC(O)C(O)S1 (stereo not drawn) [Compound 31] | 105 | 0.6 | 

Row | Structure (SMILES) | p-GPT [1, 3] [Karmen units] | Liver Damage Index [1, 4] | also measured
20 | CCCOC(=O)C(C(=O)OCCC)=C1SC(OC(=O)OCC)C(OC(=O)OCC)S1 (stereo not drawn) [Compound 66] | 53.8 | 0.2 | 
21 | CCCOC(=O)C(C(=O)OCCC)=C1SC(OC(=O)N(C)C)C(OC(=O)N(C)C)S1 (stereo not drawn) [Compound 64, di-n-propyl 4,5-bis (N,N-dimethylcarbamoyloxy)-1,3-dithiolane-2-ylidenemalonate] |  | 3.4 | 
22 | C#CCOC(=O)C(C(C)=O)=C1SC2OC(=O)OC2S1 (stereo not drawn) [Compound 99] | 18.4 | 0 | 
23 | CCCOC(=O)C(C(C)=O)=C1SC(OC(=O)N(C)C)C(OC(=O)N(C)C)S1 (stereo not drawn) [Compound 65] | 498.7 | 1.6 | 
24 | CCCOC(=O)C(C(C)=O)=C1SC(OC(C)=O)C(OC(C)=O)S1 (stereo not drawn) [Compound 61] | 1260 | 0.8 | 
25 | CCC(C)OC(=O)C(C(=O)OC(C)CC)=C1SC(OC(C)=O)C(OC(C)=O)S1 (stereo not drawn) [Compound 60] | 203.0 | 0 | 
26 | CCOC(=O)C(C(=O)C(C)C)=C1SC2OC(=O)OC2S1 (stereo not drawn) [Compound 102] | 48.5 | 1.2 | 
27 | CCCOC(=O)C(C(=O)OCCC)=C1SC2OC(=O)OC2S1 (stereo not drawn) [Compound 74] | 38.8 | 0 | 
28 | CCCOC(=O)C(C(C)=O)=C1SC2OC(=O)OC2S1 (stereo not drawn) [Compound 90] | 23.2 | 0.3 | 
29 | CC(=O)C(C(=O)OCCC(C)C)=C1SC2OC(=O)OC2S1 (stereo not drawn) [Compound 96] | 15.4 | 0 | 
30 | O=C1OC2SC(=C(C(=O)OCc3ccccc3)C(=O)OCc3ccccc3)SC2O1 (stereo not drawn) [Compound 83] | 105.5 | 1.2 | 
31 | CC(=O)C(C(=O)OC(C)(C)C)=C1SC2OC(=O)OC2S1 (stereo not drawn) [Compound 94, 7-(methylcarbonyl-tert-butoxycarbonyl)methylene-3-oxo-2,4-dioxa-6,8-dithiabicyclo[3,3,0]octane] | 26.5 | 0.8 | 
32 | CCCOC(=O)C(C(=O)OCCC)=C1SC2OC(=S)OC2S1 (stereo not drawn) [Compound 108] | 31.0 | 0 | 
33 | CCOC(=O)C(C(C)=O)=C1SC2OC(=O)OC2S1 (stereo not drawn) [Compound 88] | 211.6 | 1.4 | 
34 | CC(C)OC(=O)C(C#N)=C1SC(O)C(O)S1 (stereo not drawn) [Compound 27, isopropyl 4,5-dihydroxy-1,3-dithiolan-2-ylidenecyanoacetate] | 23 | 0.2 | 
35 | CC(=O)OC1SC(=C(C(=O)OC(C)C)C(=O)OC(C)C)SC1O (stereo not drawn) [Compound 57, diisopropyl 4-hydroxy-5-methyl carbonyloxy-1,3-dithiolan-2-ylidenemalonate] | 262.0 | 1.0 | 
36 | CCOC(=O)C(C(=O)Cc1ccccc1)=C1SC2OC(=O)OC2S1 (stereo not drawn) [Compound 106] | 602.2 | 1.0 | 
37 | CCOC(=O)C(C(=O)CC(C)C)=C1SC2OC(=O)OC2S1 (stereo not drawn) [Compound 104] | 17.6 | 0 | 
